From patent US11084800B2 (Achillion Pharmaceuticals, Inc., priority 2017, dated 2021) come the findings set out here.

In general, IC50 refers to the point on the concentration scale where inhibition reaches its midpoint.

Chain of Human Factor D (P00746 26-253): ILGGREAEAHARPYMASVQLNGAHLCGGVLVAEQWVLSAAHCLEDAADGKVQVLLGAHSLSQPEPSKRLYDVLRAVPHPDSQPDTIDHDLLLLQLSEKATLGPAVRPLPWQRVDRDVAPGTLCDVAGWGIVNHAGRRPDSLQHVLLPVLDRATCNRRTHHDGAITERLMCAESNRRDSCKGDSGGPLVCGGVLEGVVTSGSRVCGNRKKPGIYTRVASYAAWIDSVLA

The target of this experiment is Human Factor D (Homo sapiens (Human), UniProt P00746). The experiment can be described thus: Human Factor D Assay. The class given is biochemical. Particulars: Table 6; Factor D 80 nM, substrate Z-L-Lys-SBz; read-out: IC50. A digest of the protocol:
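Thioester substrate Z-L-Lys-SBz (100 μM) with Ellman's reagent DTNB (100 μM) reports activity of 80 nM human serum-derived enzyme, kinetically at 405 nm over 30 min. Compound preincubated 5 min, room temperature, pH 7.5 Tris/1 M NaCl; IC50 by nonlinear fit of rates.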
As for `CC(=O)c1nn(CC(=O)N2[C@H](C(=O)Nc3nc(Br)ccc3C)C[C@@]3(CNC(=O)c4ccccc4F)C[C@@H]23)c2c(C)cc(-c3cnc(C)nc3)cc12` [Compound 97, (1R,3S,5R)-2-(2-(3-Acetyl-7-methyl-5-(2-methylpyrimidin-5-yl)-1H-indazol-1-yl)acetyl)-N-(6-bromo-3-methylpyridin-2-yl)-5-((2-fluorobenzamido)methyl)-2-azabicyclo[3.1.0]hexane-3-carboxamide], the half-inhibitory concentration (IC50) was < 1000 nM.

Turning to `COC[C@@]12C[C@@H](C(=O)Nc3nc(Br)ccc3C)N(C(=O)Cn3nc(C(C)=O)c4cc(-c5cnc(C)nc5)cc(C)c43)[C@@H]1C2` [Compound 98, (1R,3S,5S)-2-(2-(3-Acetyl-7-methyl-5-(2-methylpyrimidin-5-yl)-1H-indazol-1-yl)acetyl)-N-(6-bromo-3-methylpyridin-2-yl)-5-(methoxymethyl)-2-azabicyclo[3.1.0]hexane-3-carboxamide], the IC50 is < 1000 nM. For `COC(=O)N[C@H](C(=O)NC[C@@]12C[C@@H](C(=O)Nc3nc(Br)ccc3C)N(C(=O)Cn3nc(C(C)=O)c4cc(-c5cnc(C)nc5)cc(C)c43)[C@@H]1C2)C(C)C` [Compound 99, methyl ((S)-1-((((lR,3S,5R)-2-(2-(3-acetyl-7-methyl-5-(2-methylpyrimidin-5-yl)-1H-indazol-1-yl)acetyl)-3-((6-bromo-3-methylpyridin-2-yl)carbamoyl)-2-azabicyclo[3.1.0]hexan-5-yl)methyl)amino)-3-methyl-1-oxobutan-2-yl)carbamate], the IC50 was < 1000 nM. Under `CC(=O)c1nn(CC(=O)N2[C@H](C(=O)Nc3nc(Br)ccc3C)C[C@@]3(CN(C)C)C[C@@H]23)c2c(C)cc(-c3cnc(C)nc3)cc12` [Compound 100, (1R,3S,5R)-2-(2-(3-acetyl-7-methyl-5-(2-methylpyrimidin-5-yl)-1H-indazol-1-yl)acetyl)-N-(6-bromo-3-methylpyridin-2-yl)-5-((dimethylamino)methyl)-2-azabicyclo[3.1.0]hexane-3-carboxamide] stands < 1000 nM.

With `CC(=O)c1nn(CC(=O)N2[C@H](C(=O)Nc3nc(Br)ccc3C)C[C@@]3(CNS(C)(=O)=O)C[C@@H]23)c2c(C)cc(-c3cnc(C)nc3)cc12` [Compound 101, (1R,3S,5R)-2-(2-(3-Acetyl-7-methyl-5-(2-methylpyrimidin-5-yl)-1H-indazol-1-yl)acetyl)-N-(6-bromo-3-methylpyridin-2-yl)-5-(methylsulfonamidomethyl)-2-azabicyclo[3.1.0]hexane-3-carboxamide], the 50% inhibitory concentration (IC50) is < 1000 nM. As to `CC(=O)c1nn(CC(=O)N2[C@H](C(=O)Nc3nc(Br)ccc3C)C[C@@]3(CNC(=O)CC(F)(F)F)C[C@@H]23)c2c(C)cc(-c3cnc(C)nc3)cc12` [Compound 102, (1R,3S,5R)-2-(2-(3-Acetyl-7-methyl-5-(2-methylpyrimidin-5-yl)-1H-indazol-1-yl)acetyl)-N-(6-bromo-3-methylpyridin-2-yl)-5-((3,3,3-trifluoropropanamido)methyl)-2-azabicyclo[3.1.0]hexane-3-carboxamide], the IC50 was < 1000 nM. As for `CC(=O)c1nn(CC(=O)N2[C@H](C(=O)Nc3nc(Br)ccc3C)C[C@@]3(C)C[C@@H]23)c2ccc(-c3cnc(CN(C)C)nc3)cc12` [Compound 103, (1R,3S,5R)-2-(2-(3-Acetyl-5-(2-((dimethylamino)methyl)pyrimidin-5-yl)-1H-indazol-1-yl)acetyl)-N-(6-bromo-3-methylpyridin-2-yl)-5-methyl-2-azabicyclo[3.1.0]hexane-3-carboxamide], the concentration for half-maximal inhibition (IC50) is < 1000 nM. As to `CC(=O)c1nn(CC(=O)N2[C@H](C(=O)Nc3nc(Br)c(F)cc3C)C[C@@]3(C)C[C@@H]23)c2cnc(-c3cnc(C)nc3)cc12` [Compound 104, (1R,3S,5R)-2-(2-(3-Acetyl-5-(2-methylpyrimidin-5-yl)-1H-pyrazolo[3,4-c]pyridin-1-yl)acetyl)-N-(6-bromo-5-fluoro-3-methylpyridin-2-yl)-5-methyl-2-azabicyclo[3.1.0]hexane-3-carboxamide], the IC50 was < 1000 nM. `CC(=O)c1nn(CC(=O)N2[C@H](C(=O)Nc3cccc(O)n3)C[C@@]3(C)C[C@@H]23)c2c(C)cc(-c3cnc(C)nc3)cc12` [Compound 105, (1R,3S,5R)-2-(2-(3-Acetyl-7-methyl-5-(2-methylpyrimidin-5-yl)-1H-indazol-1-yl)acetyl)-N-(6-hydroxypyridin-2-yl)-5-methyl-2-azabicyclo[3.1.0]hexane-3-carboxamide]: the half-maximal inhibitory concentration (IC50) was < 1000 nM. Consider `COc1ncc(-c2ccc3c(c2)c(C(C)=O)nn3CC(=O)N2[C@H](C(=O)Nc3cccc(Br)n3)C[C@@]3(C)C[C@@H]23)cn1` [Compound 108, (1R,3S,5R)-2-(2-(3-Acetyl-5-(2-methoxypyrimidin-5-yl)-1H-indazol-1-yl)acetyl)-N-(6-bromopyridin-2-yl)-5-methyl-2-azabicyclo[3.1.0]hexane-3-carboxamide], for which the concentration for half-maximal inhibition (IC50) is < 1000 nM. `CC(=O)c1nn(CC(=O)N2C[C@H]3C[C@H]3[C@H]2C(=O)O)c2c(C)cc(-c3cnc(C)nc3)cc12` [Compound 111, (1R,2S,5S)-3-(2-(3-acetyl-7-methyl-5-(2-methylpyrimidin-5-yl)-1H-indazol-1-yl)acetyl)-3-azabicyclo[3.1.0]hexane-2-carboxylic acid]: the half-maximal inhibitory concentration (IC50) is > 10000 nM. In the case of `CC(=O)c1nn(CC(=O)N2[C@H](C(=O)Nc3nc(Br)ccc3C3CC3)C[C@@]3(CN(C)C)C[C@@H]23)c2ccc(-c3cnc(C)nc3)cc12` [Compound 112, (1R,3S,5R)-2-(2-(3-Acetyl-5-(2-methylpyrimidin-5-yl)-1H-indazol-1-yl)acetyl)-N-(6-bromo-3-cyclopropylpyridin-2-yl)-5-((dimethylamino)methyl)-2-azabicyclo[3.1.0]hexane-3-carboxamide], the IC50 was < 1000 nM.

For `CC(=O)c1nn(CC(=O)N2[C@H](C(=O)Nc3nc(Br)ccc3C)C[C@@]3(CNCCF)C[C@@H]23)c2c(C)cc(-c3cnc(C)nc3)cc12` [Compound 113, (1R,3S,5R)-2-(2-(3-Acetyl-7-methyl-5-(2-methylpyrimidin-5-yl)-1H-indazol-1-yl)acetyl)-N-(6-bromo-3-methylpyridin-2-yl)-5-((2-fluoroethylamino)methyl)-2-azabicyclo[3.1.0]hexane-3-carboxamide], the IC50 is < 1000 nM.

In the case of `COCc1cc(-c2cnc(C)nc2)cc2c(C(C)=O)nn(CC(=O)N3[C@H](C(=O)Nc4nc(Br)ccc4C)C[C@@]4(COC)C[C@@H]34)c12` [Compound 114, (1R,3S,5S)-2-(2-(3-Acetyl-7-(methoxymethyl)-5-(2-methylpyrimidin-5-yl)-1H-indazol-1-yl)acetyl)-N-(6-bromo-3-methylpyridin-2-yl)-5-(methoxymethyl)-2-azabicyclo[3.1.0]hexane-3-carboxamide], the IC50 was < 1000 nM. For `Cc1ncc(-c2cc(C)c3c(c2)c(C(C)O)nn3CC(=O)N2C[C@H]3C[C@H]3[C@H]2C(=O)Nc2nc(Br)ccc2C)cn1` (stereo partly drawn) [Compound 115, (1R,2S,5S)-N-(6-bromo-3-methylpyridin-2-yl)-3-(2-(3-(1-hydroxyethyl)-7-methyl-5-(2-methylpyrimidin-5-yl)-1H-indazol-1-yl)acetyl)-3-azabicyclo[3.1.0]hexane-2-carboxamide], the IC50 lay in the range of 1000 to 10000 nM.

In the case of `CC(=O)c1nn(CC(=O)N2[C@H](C(=O)Nc3cc(F)cc(Br)n3)C[C@@]3(C)C[C@@H]23)c2c(C)cc(-c3cnc(C)nc3)cc12` [Compound 116, (1R,3S,5R)-2-(2-(3-Acetyl-7-methyl-5-(2-methylpyrimidin-5-yl)-1H-indazol-1-yl)acetyl)-N-(6-bromo-4-fluoropyridin-2-yl)-5-methyl-2-azabicyclo[3.1.0]hexane-3-carboxamide], the IC50 is < 1000 nM. Under `CC(=O)c1nn(CC(=O)N2C[C@H](F)C[C@H]2C(=O)Nc2nc(Br)ccc2CC(=O)N(C)C)c2ccc(-c3cnc(C)nc3)cc12` [Compound 117, (2S,4R)-1-(2-(3-Acetyl-5-(2-methylpyrimidin-5-yl)-1H-indazol-1-yl)acetyl)-N-(6-bromo-3-(2-(dimethylamino)-2-oxoethyl)pyridin-2-yl)-4-fluoropyrrolidine-2-carboxamide] stands < 1000 nM; under `CCN(CC)C[C@@]12C[C@@H](C(=O)Nc3nc(Br)ccc3C)N(C(=O)Cn3nc(C(C)=O)c4cc(-c5cnc(C)nc5)cc(C)c43)[C@@H]1C2` [Compound 118, (1R,3S,5R)-2-(2-(3-Acetyl-7-methyl-5-(2-methylpyrimidin-5-yl)-1H-indazol-1-yl)acetyl)-N-(6-bromo-3-methylpyridin-2-yl)-5-((diethylamino)methyl)-2-azabicyclo[3.1.0]hexane-3-carboxamide], < 1000 nM; under `CC(=O)c1nn(CC(=O)N2[C@H](C(=O)Nc3nc(Br)ccc3C)C[C@@]3(CN4C[C@H]5CCC[C@H]5C4)C[C@@H]23)c2ccc(-c3cnc(C)nc3)cc12` [Compound 119, (1R,3S,5R)-2-(2-(3-Acetyl-5-(2-methylpyrimidin-5-yl)-1H-indazol-1-yl)acetyl)-N-(6-bromo-3-methylpyridin-2-yl)-5-(((3aR,6aS)-hexahydrocyclopenta[c]pyrrol-2(1H)-yl)methyl)-2-azabicyclo[3.1.0]hexane-3-carboxamide], < 1000 nM. For `CNc1ncc(-c2ccc3c(c2)c(C(C)=O)nn3CC(=O)N2[C@H](C(=O)Nc3nc(Br)ccc3C)C[C@@]3(C)C[C@@H]23)cn1` [Compound 120, (1R,3S,5R)-2-(2-(3-Acetyl-5-(2-(methylamino)pyrimidin-5-yl)-1H-indazol-1-yl)acetyl)-N-(6-bromo-3-methylpyridin-2-yl)-5-methyl-2-azabicyclo[3.1.0]hexane-3-carboxamide], the IC50 was < 1000 nM. Regarding `C=CCCCCN(C)C[C@@]12C[C@@H](C(=O)Nc3nc(Br)ccc3C=C)N(C(=O)Cn3nc(C(C)=O)c4cc(-c5cnc(C)nc5)ccc43)[C@@H]1C2` [Compound 123, (1R,3S,5R)-2-(2-(3-Acetyl-5-(2-methylpyrimidin-5-yl)-1H-indazol-1-yl)acetyl)-N-(6-bromo-3-vinylpyridin-2-yl)-5-((hex-5-en-1-yl(methyl)amino)methyl)-2-azabicyclo[3.1.0]hexane-3-carboxamide], the half-inhibitory concentration (IC50) was < 1000 nM.
